Results reported in the NIST ThermoML archive (doi:10.1016/j.jct.2013.05.012).

Tests used:
[1] = wn = mass fraction of the nth substance listed; conditions: 101 kPa, Liquid; for mass density: Pycnometric method; for viscosity: Capillary tube (Ostwald / Ubbelohde) method; for speed of sound: variable-path interferometer
[2] = mn = molality of the nth substance listed, in mol/kg; conditions: 101 kPa, Liquid, variable-path interferometer
[3] = 101 kPa, Liquid, Linear variable-path acoustic interferometer

OC[C@H]1O[C@@](CO)(O[C@H]2O[C@H](CO)[C@@H](O)[C@H](O)[C@H]2O)[C@@H](O)[C@@H]1O [D-sucrose] + O
[1]
Conditions	mass density [kg/m3]	speed of sound [m/s]	viscosity [mPa·s]
293.15 K, w1 = 0.05	1018.91	–	–
293.15 K, w1 = 0.1	1039.28	–	–
293.15 K, w1 = 0.15	1060.31	–	–
293.15 K, w1 = 0.2	1082.73	–	–
298.15 K, w1 = 0.05	1017.19	1516.5	1.011
298.15 K, w1 = 0.1	1037.45	1531.8	1.183
298.15 K, w1 = 0.15	1058.49	1543.6	1.418
298.15 K, w1 = 0.2	1080.77	1555.3	1.756
303.15 K, w1 = 0.05	1015.45	1526.6	0.9129
303.15 K, w1 = 0.1	1035.61	1541.8	1.061
303.15 K, w1 = 0.15	1056.67	1553	1.252
303.15 K, w1 = 0.2	1078.8	1564.6	1.549
308.15 K, w1 = 0.05	1013.72	1537.8	0.8285
308.15 K, w1 = 0.1	1033.76	1551.6	0.9614
308.15 K, w1 = 0.15	1054.84	1562	1.129
308.15 K, w1 = 0.2	1076.84	1575.2	1.396
313.15 K, w1 = 0.05	1011.98	1547.7	0.7457
313.15 K, w1 = 0.1	1031.93	1561.8	0.8804
313.15 K, w1 = 0.15	1053.01	1570.8	1.025
313.15 K, w1 = 0.2	1074.88	1583.9	1.25
318.15 K, w1 = 0.05	1010.23	1557.2	0.6946
318.15 K, w1 = 0.1	1030.09	1570.9	0.8179
318.15 K, w1 = 0.15	1051.2	1579.2	0.9402
318.15 K, w1 = 0.2	1072.93	1592.8	1.15

C[C@@H](O)[C@H](N)C(=O)O [L-threonine] + O
speed of sound [m/s], [2]
Conditions	m1 = 0.0249	m1 = 0.0498	m1 = 0.0749	m1 = 0.0999	m1 = 0.125	m1 = 0.1499	m1 = 0.1749	m1 = 0.1999
298.15 K	1501.1	1505.5	1510.2	1515.2	1520.5	1526.1	1531.9	1538.1
303.15 K	1512.5	1516.9	1521.6	1526.5	1531.7	1537.3	1543.2	1549.4
308.15 K	1523.8	1528.1	1532.7	1537.5	1542.7	1548.2	1553.9	1560.1
313.15 K	1530.7	1534.9	1539.4	1544.1	1549.2	1554.5	1560.2	1566.1
318.15 K	1536.8	1540.9	1545.2	1549.8	1554.8	1560	1565.5	1571.3

O [water]
[3]
Conditions	speed of sound [m/s]
303.15 K	1508.4
313.15 K	1526.8
318.15 K	1533
